The source of these data is US8697385B1, “Protein controlling synthesis of collagen and associated methods” (Florida State University Research Foundation, Inc., priority 2009, dated 2014).

One assay has as its system wild-type (WT) MEFs. Description: Western blot analysis of collagen α1(I) polypeptide, WT MEFs. Format: cell-based, mouse. The settings on record: ML-7 treatment. As to the method:
(§1) ML-7, blebbistatin, cytochalasin B, puromycin, and cycloheximide were purchased from Sigma. ML-7 was used at 40 μM, blebbistatin was used at 100 μM, and cytochalasin B was used at 20 μM. Cells were incubated with the drugs for 16 h before analysis. Puromycin (200 μg/ml) and cycloheximide (100 μg/ml) were added to the cells for 2 h. Human lung fibroblasts have been described previously.16 Scleroderma fibroblasts were purchased from the European Collection of Cell Cultures (cell line BM0070) and derived from the skin of a scleroderma patient. MEFs were derived from knock-in mice in which the 5′SL of the collagen α1(I) gene has been mutated (Parsons et al., submitted). Several independent cell isolates were used throughout the study. All cells were cultured in Dulbecco's modified Eagle's medium supplemented with 10% fetal bovine serum for up to 10 passages. […] [^32P]dCTP was included in the PCR step to label the products, which were resolved on sequencing gels, as described previously.^8,31,49,50 When RNA from polysomal fractions was analyzed, an equal aliquot of each fraction was used. […]
(§2) Protein concentration was estimated by the Bradford assay, with bovine serum albumin as standard.^51 Western blot analyses of cellular proteins were performed using 50 μg of protein. […] The medium was collected, and an aliquot was analyzed directly by Western blot analysis. […]
A general note: A western blot detects proteins with antibodies after separation by electrophoresis.

The test system of another assay is lung fibroblasts. Description: Immunostaining for subcellular colocalization of collagen α1(I) and α2(I) polypeptides. Format: cell-based, human. The settings on record: ML-7-treated vs control cells (high degree of colocalization). How it is done:
as §1, §2

The subject of assay [1] is lung fibroblasts and scleroderma fibroblasts. In words: Intracellular collagen degradation with proteosome inhibitor epoxomycin, Western blot. The assay is classed as cell-based, human.
Description: FIG. 3 Disruption of nonmuscle myosin by ML-7 results in secretion of homotrimeric type I collagen. (a) ML-7 disrupts nonmuscle myosin filaments. Immunostaining of nonmuscle myosin IIB in control lung fibroblasts (CON) and in lung fibroblasts treated with ML-7 (ML-7). […] Western blot analysis of control cells (lane 1) and cells treated with ML-7 (lane 2) using anti-myosin IIB antibody (MYO IIB). Fibronectin (FIB), loading control. (c) Effect of ML-7 on collagen secretion from lung fibroblasts. Western blot analysis of cellular proteins from control cells (lane 2) and ML-7-treated cells (lane 1), and of medium proteins from control cells (lane 4) and ML-7-treated cells (lane 3). COL1A1, collagen α1(I) polypeptide; COL1A2, collagen α2(I) polypeptide; FIB, fibronectin as loading control. […] The medium samples from (c) were analyzed under reducing conditions (lanes 1 and 2) and nonreducing conditions […] with antibody specific for collagen α1(I) polypeptide. […] Intracellular collagen was analyzed by Western blot analysis using antibodies against collagen α1(I) polypeptide (COL1A1) and α2(I) polypeptide (COL1A2). […]
as §2

As to `O=S(=O)(c1cccc2c(I)cccc12)N1CCCNCC1` [ML-7], in the assay on wild-type (WT) MEFs, the “cellular level of α1(I) polypeptide” value is “did not change” and the “secretion of α1(I) polypeptide into the medium” value is given as “drastically reduced”. Further, the “subcellular colocalization of α1(I) and α2(I) polypeptides” value with lung fibroblasts is on record as “a significant fraction of α2(I) polypeptide (red) was not colocalized with α1(I) polypeptide”. The “intracellular level of both collagen polypeptides” value in assay [1] (ML-7 in combination with epoxomycin vs epoxomycin alone, lung and scleroderma fibroblasts) is on record as “significantly increased”. Also, the “additional (degradation) product of approximately 120 kDa” value in assay [1] (epoxomycin and ML-7, not seen with epoxomycin alone) is reported as “prominently seen”.
